Measurements as given in US11583498B2 (Wakamono Corporation, priority 2020, dated 2023).

Tests used:
[1] = Water dispersibility comparison (FIG. 1); assay type: physicochemical; conditions: dispersed in water, vials of FIG. 1
From the text: With reference to FIG. 1, water dispersibility was compared between the known 95% Tan IIA and nano Tan IIA obtained by the process according to the present invention, in which Vial A represented the known 95% Tan IIA dispersed in water, Vial B represented nano Tan IIA dispersed in water obtained by the process according to the present invention.

[2] = oral administration; cited from earlier work

**Q.** For `Cc1coc2c1C(=O)C(=O)c1c-2ccc2c1CCCC2(C)C` [Tan IIA, Tanshinone IIA], which water dispersibility [1] is on record?
**A.** water insoluble

**Q.** What about the bioavailability [2] of the same compound?
**A.** low bioavailability
